# Source: patent publication US7238469B2, “Carbon monoxide improves outcomes in tissue and organ transplants and suppresses apoptosis” (priority 2001, dated 2007)
# “Also recorded” adds a separate entry of the source.
# How the values were obtained:
# [1] = test system: mouse hearts transplanted into rats; assay: Mouse-to-rat heterotopic cardiac transplant, graft survival; format: in vivo, BALB/c mouse hearts, Lewis rats; settings: for graft outcome: mouse hearts into rats, FePPIX with CVF plus CsA, CO 400 ppm in SnPPIX-treated rats
# Text: BALB/c mouse hearts were used as donor organs for transplantation into inbred adult male Lewis rats (Harlan Sprague-Dawley, Indianapolis, Ind.). Animals were housed in accordance with guidelines from the American Association for Laboratory Animal Care, and research protocols were approved by the Institutional Animal Care and Use Committees of the Beth Israel Deaconess Medical Center.
# Animals were anesthetized by a combination of methoxyflurane (Pitman-Moore, Mundelain, Ill.) inhalation and pentobarbital (Abbott, North Chicago, Ill.) at a dose of 30–50 mg/kg i.p. during all procedures. Heterotopic cardiac transplants were performed as described previously (Berk et al., Physiol Rev. 8:999–1030, 2001; Petkova et al., J Biol. Chem. 276:7932–7936, 2001). Graft survival was assessed daily by palpation. Rejection was diagnosed by cessation of ventricular contractions and confirmed by histologic examination.
# Cobra venom factor (CVF; which blocks complement activation) (Quidel, San Diego, Calif.) was administered i.p. on day −1 (60 U/kg) and on day 0 (20 U/kg) with respect to the day of transplantation (day 0). Cyclosporin A (CsA; Novartis, Basel, Switzerland), which blocks T cell activation, was administered i.m. (15 mg/kg) starting at day 0 and daily thereafter until the end of each experiment. Tin protoporphyrin (SnPPIX), cobalt protoporphyrin (CoP-PIX), and iron protoporphyrin (FePPIX; Porphyrin Products, Logan, Utah) were diluted in 100 mM NaOH to a stock solution of 50 mM and kept at −70° C. until used. Light exposure was limited as much as possible. Both SnPPIX and FePPIX were administered i.p. (30 μM/kg) in PBS. FePPIX and SnPPIX were administered to the donor at days −2 and −1 (30 μM/kg) and to the recipient at the time of transplantation (day 0) and daily thereafter (30 μM/kg).
# Briefly, CO at a concentration of 1% (10,000 parts per million; ppm) in compressed air was mixed with balanced air (21% oxygen) in a stainless steel mixing cylinder before entering the exposure chamber. CO concentrations were controlled by varying the flow rates of CO in a mixing cylinder before delivery to the chamber. Because the flow rate is primarily determined by the O2 flow, only the CO flow was changed to deliver the final concentration to the exposure chamber. A CO analyzer (Interscan Corporation, Chatsworth, Calif.) was used to measure CO levels continuously in the chamber. Graft donors were placed in the CO exposure chamber 2 days before transplantation. Graft recipients were placed in the exposure chamber immediately following transplantation and were kept in the exposure chamber for 14 (n=3) or 16 (n=3) days. CO concentration was maintained between 250 and 400 ppm at all times. Animals were removed daily from the chamber to assess graft survival and to administer CsA, SnPPIX, or FePPIX, as described above.
# 2F–2B ECs = format: cell-based, murine
# Experimental: The murine 2F–2B endothelial cell line (ATCC) was transiently transfected as described elsewhere (Soares et al., Nature Med. 4:1073, 1998; Brouard et al, J. Exp. Med. 192:1015, 2000). All experiments were conducted 24–48 h after transfection. é-galactosidase-transfected cells were detected as described elsewhere (Soares et al., Nature Med. 4:1073, 1998; Brouard et al., J. Exp. Med. 192:1015, 2000). Percentage of viable cells was assessed by evaluating the number of é-galactosidase-expressing cells that retained normal morphology as described elsewhere (Soares et al., Nature Med. 4:1073, 1998; Brouard et al., J. Exp. Med. 192:1015, 2000). The number of random fields counted was determined to have a minimum of 200 viable transfected cells per control well. The percentage of viable cells was normalized for each DNA preparation to the number of transfected cells counted in the absence of the apoptosis-inducing agent (100% viability). All experiments were performed at least three times in duplicate. Actinomycin D (Act. D; Sigma) was dissolved in PBS and added to the culture medium (10 îg/ml) 24 h after transfection. SnPPIX (Porphyrin Products) was dissolved (10 îM) in 100 mM NaOH and conserved at −20° C. until used. SNPPIX was added to the culture medium (50 îM) 6 h after transfection. Human recombinant TNF-α (R&D Systems, Minneapolis, Minn.) was dissolved in PBS, 1% BSA, and added to the culture medium (10–100 ng/ml) 24 h after transfection.
# Cells were exposed to compressed air or varying concentration of CO (250 and 10,000 ppm), as described elsewhere (Otterbein et al., Nature Med. 6:422, 2000; and Brouard et al., J. Exp. Med. 192:1015, 2000).
# BAECs and 2F–2B ECs were transiently transfected. All experiments were carried out 24–48 h after transfection. The percentage of viable cells was assessed by evaluating the number of β-galactosidase-expressing cells that retained normal morphology. The number of random fields counted was determined to have a minimum of 200 viable transfected cells per control well. The percentage of viable cells was normalized for each DNA preparation to the number of transfected cells counted in the absence of the apoptosis-inducing agent (100% viability). All experiments were performed at least three times in duplicate.
# Actinomycin D (Act.D; Sigma-Aldrich) was dissolved in PBS and added to the culture medium 24 h after transfection. The Act.D concentration used corresponded to the optimal concentration necessary to sensitize ECs to TNF-α mediated apoptosis, e.g., 10 μg/ml for 2F–2B ECs and 0.1 μg/ml for BAECs. When indicated, EC apoptosis was induced by etoposide (200 μM, 8 h; Calbiochem-Novabiochem) or by serum deprivation (0.1% FCS for 24 h). The iron chelator deferoxamine mesylate (DFO; Sigma-Aldrich) was dissolved in water and added to culture medium (1–100 μM) 1 h before the induction of apoptosis. Hemoglobin (Hb; Sigma-Aldrich) was dissolved (1 mM) in PBS, 10 mM Na2S2O4, dialyzed against PBS (2 h, 4° C., 1:800 dilution), and added to the culture medium (1–100 μM) 6 h after transfection. The guanylcyclase inhibitor 1H(1,2,4)oxadiazolo(4,3)quinoxalin-1 (ODQ; Calbiochem-Novabiochem) was dissolved in DMSO (Sigma-Aldrich) and added to the culture medium (10–100 μM) 6 h after transfection. Iron protoporphyrin ([FePP]/heme), cobalt protoporphyrin (CoPPIX), and tin protoporphyrin (SnPPIX; all from Porphyrin Products, Inc.) were dissolved (10 mM) in 100 mM NaOH and held at −20° C. until use. Metalloporphyrins were added to the culture medium (50 μM) 6 h after transfection. The cGMP analogue 8-bromo-cGMP sodium salt (8-Br-cGMP; Sigma-Aldrich) was dissolved in water and added to the culture medium (10–100 µM) 30 min before the induction of apoptosis. Human recombinant TNF- (R&D Systems) was dissolved in PBS and 1% BSA, and added to the culture medium (10–100 ng/ml) 24 h after transfection.
# Cells were exposed to compressed air from a compressed air tank or varying concentrations of CO (250 and 10,000 ppm).
structure (smiles),measurement,setting,value
"[C-]#[O+] [CO, carbon monoxide]",dose of CO used as fraction of the lethal dose,[1]; 400–500 ppm,approximately one-twentieth
same,graft outcome,[1],survived long term
same,untoward reactions,[1]; rats and mice exposed to CO,did not exhibit untoward reactions
same,time grafts continued to function,"[1]; rats treated with SnPPIX, CO 400 ppm discontinued 14 or 16 days after transplantation",> 50 days
same,effect on EC apoptosis under inhibition of HO activity by SnPPIX,2F–2B ECs; CO 250 ppm,did not suppress EC apoptosis significantly
same,effect on TNF-α mediated apoptosis of control ECs (pcDNA3),"2F–2B ECs; exogenous CO 10,000 ppm",TNF-α mediated apoptosis was suppressed
"C=CC1=C(C)c2cc3[n-]c(cc4[n-]c(cc5nc(cc1n2)C(C)=C5C=C)c(C)c4CCC(=O)O)c(CCC(=O)O)c3C.[Fe+2] [FePPIX, iron protoporphyrin]",graft outcome,[1],did not lead to graft rejection
same,concentrations at which heme becomes cytotoxic,2F–2B ECs; 2F–2B ECs,higher than 10 μM
same,heme concentrations at which the protective effect from TNF-α plus Act.D-mediated apoptosis was observed,2F–2B ECs; 2F–2B ECs,5 to 7 µM
same,effect on EC apoptosis when CO was scavenged by Hb,"2F–2B ECs; FePP 6.25 μM, Hb 50 μM",no longer able to suppress EC apoptosis
"O=c1onc2cnc3ccccc3n12 [ODQ, 1H[1,2,4]oxadiazolo[4,3-α]quinoxalin-1]",effect on the antiapoptotic effects of HO-1,2F–2B ECs; ODQ 10–100 μM,did not suppress the antiapoptotic effects of HO-1
"C=Cc1c2[n-]c(c1C)/C=c1\[n-]/c(c(C)c1C=C)=C\c1[n-]c(c(CCC(=O)O)c1C)C=c1[n-]/c(c(C)c1CCC(=O)O)=C\2.[Sn+4] [SnPPIX, tin protoporphyrin IX]",time to graft rejection after transplantation,"[1]; SnPPIX to donor and recipient, despite CVF plus CsA",3 to 7 days
same,effect of protoporphyrin on the antiapoptotic effect of HO-1,"2F–2B ECs; HO-1 transfected ECs, protoporphyrin 50 μM",blocked the antiapoptotic effect of HO-1; also recorded: HO-1 was no longer able to prevent EC apoptosis
"Nc1nc2c(nc(Br)n2[C@@H]2O[C@@H]3COP(=O)(O)O[C@H]3[C@H]2O)c(=O)[nH]1 [8-Br-cGMP, 8-bromoguanosine-3′-5′-cyclic-monophosphate]",effect on EC apoptosis,2F–2B ECs; 8-Br-cGMP,failed to suppress EC apoptosis
